Results published in patent US20030092638A1, “Protopanaxadiol and protopanaxatriol and their use as anti-cancer agents” (priority 2001, published 2003).
Read-outs that look alike come from different tables or passages of the source.

Assays:
[1] = tested on: MCF7 cells; assay: cells; conditions: Homo sapiens, MCF7, read-out: IC50 of taxol
Method: (§1) Cells were either treated with various concentrations of paclitexal alone or in the presence of 20 μg/ml Rh2, 6 μg/ml PPT or PPD.

[2] = tested on: MCF7r cells; assay: cells; conditions: Homo sapiens, read-out: IC50 of taxol
Method: as §1

[3] = tested on: MCF7 cells; conditions: MCF7 (drug sensitive)
Method: as §1

[4] = tested on: MCF7r cells; conditions: MCF7r (drug resistant)
Method: as §1

[5] = tested on: B16 melanoma tumor cells
Method: Cells were treated with various concentrations of the compounds and the viability was measured 24 hours post treatment.

Row | Compound | IC50 [1] | IC50 [2] | Enhancement of IC50 of taxol versus taxol only ([3]; compound at 6 μg/ml) | Enhancement of IC50 of taxol versus taxol only ([4]; compound at 6 μg/ml) | Tumor inhibitory effect (cytotoxicity) compared with Rh2 [5] | Enhancement of IC50 of taxol versus taxol only ([3]; compound at 20 μg/ml) | Enhancement of IC50 of taxol versus taxol only ([4]; compound at 20 μg/ml)
1 | CC(=O)O[C@H]1C(=O)[C@@]2(C)[C@H]([C@H](OC(=O)c3ccccc3)[C@]3(O)C[C@H](OC(=O)[C@H](O)[C@@H](NC(=O)c4ccccc4)c4ccccc4)C(C)=C1C3(C)C)[C@]1(OC(C)=O)CO[C@@H]1C[C@@H]2O [Taxol, paclitaxel] | 225 nM | 930 nM |  |  |  |  | 
2 | CC(C)=CCCC(C)(O)[C@H]1CC[C@]2(C)[C@@H]1[C@H](O)C[C@@H]1[C@@]3(C)CC[C@H](O)C(C)(C)[C@@H]3CC[C@]12C (stereo in doubt) [Protopanaxadiol, protopanaxadiol] |  |  | (18 fold | (29517 fold | more potent tumor inhibitory effect than Rh2 |  | 
3 | CC(C)=CCC[C@](C)(O)[C@H]1CC[C@]2(C)[C@@H]1[C@H](O)C[C@@H]1[C@@]3(C)CC[C@H](O)C(C)(C)[C@@H]3[C@@H](O)C[C@]12C [Protopanaxatrial, protopanaxatriol] |  |  | (4.9 fold | (1744 fold | more potent tumor inhibitory effect than Rh2 |  | 
4 | CC(C)=CCC[C@](C)(O)[C@H]1CC[C@]2(C)[C@@H]1[C@H](O)C[C@@H]1[C@@]3(C)CC[C@H](O[C@@H]4O[C@H](CO)[C@@H](O)[C@H](O)[C@H]4O)C(C)(C)[C@@H]3CC[C@]12C [Rh2, 3-O-β-D-glucopyranosyl-20(s)-protopanaxadiol, reference compound] |  |  |  |  |  | (3.65 fold | (4470 fold
